This note sets out measurements from ChEMBL document CHEMBL1201862, “PubChem BioAssay data set” (2004).

Test [1] can be described thus: inhibitors of intracellular T. cruzi replication, confirmation, NIH3T3 host cells, beta-gal luminescence (AID 2044).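 Note: intracellular parasites grown in NIH/3T3 mouse fibroblasts as host cells; luminescent beta-galactosidase reporter signal from transgenic T. cruzi replicating inside host cells; inhibitors lower the luminescence signal.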 In kind it is functional, cell-based.
A short description of test [2]: cytotoxicity toward NIH3T3 fibroblasts, dose response, counter-screen, cell-based, ATP luminescence, mouse fibroblasts (AID 2010).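 Note: cells exposed to compound for about 90 hours before reading.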 In kind it is functional.
The target in test [3] is T1, Short transient receptor potential channel 4 (Mus musculus, UniProt Q9QUQ5).
T1 sequence (Q9QUQ5 whole entry): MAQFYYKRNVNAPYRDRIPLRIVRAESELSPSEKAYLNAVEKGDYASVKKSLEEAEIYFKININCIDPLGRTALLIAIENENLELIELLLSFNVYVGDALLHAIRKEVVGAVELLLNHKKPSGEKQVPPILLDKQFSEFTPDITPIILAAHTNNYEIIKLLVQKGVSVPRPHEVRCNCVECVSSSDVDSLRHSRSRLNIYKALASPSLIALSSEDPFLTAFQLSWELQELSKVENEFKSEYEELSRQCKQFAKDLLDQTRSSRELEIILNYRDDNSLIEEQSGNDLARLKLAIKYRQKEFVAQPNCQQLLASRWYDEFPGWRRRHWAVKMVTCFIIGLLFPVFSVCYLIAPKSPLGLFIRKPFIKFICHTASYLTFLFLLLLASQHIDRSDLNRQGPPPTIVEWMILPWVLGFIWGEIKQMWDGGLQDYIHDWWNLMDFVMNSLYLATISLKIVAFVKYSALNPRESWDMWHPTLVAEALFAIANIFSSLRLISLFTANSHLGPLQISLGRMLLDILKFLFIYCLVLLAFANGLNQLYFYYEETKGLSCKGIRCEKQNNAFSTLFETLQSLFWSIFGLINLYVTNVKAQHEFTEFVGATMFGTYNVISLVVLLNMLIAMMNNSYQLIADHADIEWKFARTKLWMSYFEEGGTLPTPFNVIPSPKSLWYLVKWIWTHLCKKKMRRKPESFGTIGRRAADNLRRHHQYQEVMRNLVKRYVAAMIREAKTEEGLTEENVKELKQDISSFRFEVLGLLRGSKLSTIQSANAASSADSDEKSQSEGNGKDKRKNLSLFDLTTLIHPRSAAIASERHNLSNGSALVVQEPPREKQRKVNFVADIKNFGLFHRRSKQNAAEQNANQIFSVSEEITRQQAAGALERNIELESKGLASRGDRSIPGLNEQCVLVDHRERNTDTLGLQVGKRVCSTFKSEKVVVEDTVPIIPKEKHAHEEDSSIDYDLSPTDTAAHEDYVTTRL
Description: mouse TRPC4 channel activators, dose response, cell-based, HEK293 TRPC4/mu-opioid, Fluo-4 calcium (AID 434937). Type of test: functional.

A short description of test [4]: cells.
Test [5] has as its system HEK293. Description: NOD1 signaling inhibitors, primary screen, cell-based, luminescence, uHTS (AID 1578). In kind it is functional. The note with it: Homo sapiens.
Test [6] concerns HEK293. Description: cells. Type of test: functional, cell-based. The note with it: Homo sapiens.
Test [7] deals with HEK293. Description: cells. Type of test: functional, cell-based. The note with it: Homo sapiens. This is another data set of the same source.
For test [8], the system named is HEK293. Description: NOD2 signaling inhibitors in MDP-stimulated cells, cell-based, uHTS, luminescence (AID 2001). In kind it is functional. The note with it: Homo sapiens.
Test [9] in a line: Luminescence Cell-Based Dose Retest to Confirm Inhibitors of Cancer Stem Cells. [Related pubchem assays (depositor defined):AID2717, AID2721]. In kind it is functional. To be noted: Homo sapiens.
Test [10] concerns the target Heat shock protein HSP 90-alpha (Homo sapiens, UniProt P07900). Type of test: functional, organism-based.
The target in test [11] is T2, Endoribonuclease toxin MazF (Escherichia coli K-12, UniProt P0AE70).
T2 sequence (P0AE70 whole entry): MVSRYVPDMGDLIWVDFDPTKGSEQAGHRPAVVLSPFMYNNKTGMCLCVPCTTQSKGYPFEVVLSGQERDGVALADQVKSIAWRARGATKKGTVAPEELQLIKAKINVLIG
Description: MazF toxin RNase activators, dose response, biochemical, fluorescence, single-stranded RNA substrate, uHTS hits (AID 588481). Type of test: functional.

Test [12] concerns the target T2, Endoribonuclease toxin MazF. Description: fluorescent RNA oligo signal without MazF, dose response, counter-screen for MazEF activator project, biochemical, fluorescence, single-stranded RNase substrate (AID 588502). Type of test: functional. For orientation: The purpose of a counterscreen is to sort out artefacts and off-target activity.
For the next test, the target named is Trypsin (Sus scrofa, UniProt P00761). Description: porcine trypsin inhibitors, dose response, selectivity assay for Rce1 protease inhibitor project, biochemical, quenched peptide fluorescence, cherry-pick (AID 488789).
The target in the next test is T3, CAAX prenyl protease 2 (Homo sapiens, UniProt Q9Y256).
T3 sequence (Q9Y256 whole entry): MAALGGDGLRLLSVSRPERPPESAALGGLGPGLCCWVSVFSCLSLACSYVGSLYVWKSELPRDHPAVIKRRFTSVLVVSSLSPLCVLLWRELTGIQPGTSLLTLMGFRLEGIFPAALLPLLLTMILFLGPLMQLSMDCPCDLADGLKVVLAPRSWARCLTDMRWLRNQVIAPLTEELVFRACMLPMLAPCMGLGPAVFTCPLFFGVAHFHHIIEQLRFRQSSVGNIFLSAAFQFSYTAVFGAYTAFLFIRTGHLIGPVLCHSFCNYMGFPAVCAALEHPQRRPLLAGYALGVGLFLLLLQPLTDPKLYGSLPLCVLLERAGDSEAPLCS
Description: human Rce1 protease inhibitors, dose response, biochemical, yeast membranes, quenched-peptide fluorescence, cherry-pick (AID 588849).

A short description of test [13]: Luminescence Cell-Based Dose Confirmation HTS to Identify Activators of 5'UTR Stem-Loop Driven Alpha-Synuclein mRNA Translation in H4 Neuroglioblastoma Cells. [Related pubchem assays: 1829 (Project Summary), 1814 (Primary HTS)]. Type of test: functional.
Test [14] can be described thus: Luminescence Cell-Based Dose Response HTS to Identify Activators of Luciferase Translation or Activity in H4 […] Cells. [Related pubchem assays: 1829 (Project Summary), 1814 (Primary HTS)]. Type of test: functional.
The nature of test [15]: cells. Type of test: functional, cell-based.
In the next test the test system is H4. Description: Luminescence Cell-Based Dose Response HTS to Identify Activators of 5'UTR Stem-Loop Driven Prion Protein mRNA Translation in H4 Neuroglioblastoma Cells. [Related pubchem assays: 1829 (Project Summary), 1814 (Primary HTS)]. To be noted: Homo sapiens. Type of test: functional.
Test [16] can be described thus: cells. Type of test: functional, cell-based. This is another data set of the same source.
Test [17] has as its system Vero. Description: cells. Type of test: functional, cell-based. The note with it: Chlorocebus sabaeus.
Test [18] deals with Vero. Description: cells. The note with it: Chlorocebus sabaeus. Type of test: functional.
The nature of test [19]: microbe, parasite or virus in culture. In kind it is functional. The note with it: Mycobacterium tuberculosis.
Test [20] is described as follows: HEp-2 cell cytotoxicity, dose response, cytotoxicity control for RSV inhibitor project, HTS (AID 2410). In kind it is functional. The note with it: human respiratory syncytial virus.

Structures are written as SMILES. Active and inactive are the calls of the source.

Trypsin, sequence (P00761 whole entry): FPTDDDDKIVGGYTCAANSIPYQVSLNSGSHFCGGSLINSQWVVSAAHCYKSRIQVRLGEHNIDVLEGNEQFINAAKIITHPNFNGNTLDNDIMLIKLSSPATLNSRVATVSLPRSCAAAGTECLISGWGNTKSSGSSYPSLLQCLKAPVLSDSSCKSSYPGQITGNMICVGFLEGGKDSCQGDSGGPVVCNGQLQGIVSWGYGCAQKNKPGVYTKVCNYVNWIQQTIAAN

The term EC50 denotes the concentration giving half of the maximal effect. On to `CN(C)CCCN(C(=O)c1ccc(S(=O)(=O)N2CCOCC2)cc1)c1nc2ccc(F)cc2s1`, for which the 50% effective concentration (EC50) is < 0.1 µM (active) in [1], > 30 µM (not active) in test [2], 9.44 µM (active) in test [3] and 0.02 µM (active) in “cells [4]”.

On to `O=C(CC1C(=O)NCCN1Cc1ccccc1C(F)(F)F)NCCc1ccccn1` (configuration not stated), for which the EC50 in test [3] was 6.68 µM (active).

As a reminder, the IC50 is the point on the concentration scale where inhibition reaches its midpoint. The AC50 is the concentration at which the activity in the assay is half-maximal. Turning to `CCOC(=O)C(=Cc1ccc(-n2cncn2)cc1)C(=O)OCC`, in the test with HEK293 [5], the EC50 was > 20 µM (inactive). Moreover, the IC50 in the test on HEK293 [6] was 5.19 µM (active); in the test with HEK293 [7], > 20 µM (inactive); in the test on HEK293 [8] it was 10.9 µM (inactive). The results for the AC50 in test [9] and in test [10] were 3.47 µM (active) and 7.37 µM (active), respectively.

With `Cc1ccc(S(=O)(=O)NN)c(C)c1N1CCCC1=O`, the values for the EC50 in test [11] and in [12] were 58.2 µM (inactive) and 10.6 µM (active), respectively.

`Nc1ccccc1Oc1ccc2ccccc2c1`: the AC50 is 6.89 µM (active) on Trypsin and 5.84 µM (active) at CAAX prenyl protease 2.

`CCOC(=O)C(=Cc1ccc(OCc2ccc([N+](=O)[O-])cc2)c(OC)c1)C(=O)OCC`: the EC50 was 10.6 µM (active) with HEK293 [5]; 0.171 µM (active) in test [13]; 1.18 µM (active) in [14]; > 350 µM (not active) in the test “cells [15]”; 0.246 µM (active) with H4; 70 µM (active) in the test “cells [16]”. The half-maximal inhibitory concentration (IC50) was 2.07 µM (active) in the test with HEK293 [6], 12.8 µM (active) with HEK293 [7], 5.14 µM (active) in the test on HEK293 [8] and > 25 µM (active) in the test with Vero [17]. The AC50 in test [9] was 1.79 µM (active). Moreover, the CC50 in the test with Vero [18] is 9.93 µM (active).

`O=C(Nc1nnc(-c2ccccc2Cl)o1)c1nc2ccccc2s1`: in test [19], the CC50 is > 40 µM (active). In addition, the EC50 in test [3] is 4.73 µM (active).

As for `Cc1ccc([N+](=O)[O-])cc1N/C=C1\CCCCC1=O`, the CC50 in test [20] was 18.4 µM (active). In addition, the EC50 in [11] and in test [12] was > 99 µM (inactive) each time.
